How the values were obtained:
[1] = tested on: Nox4-CreERT2 mice; assay: Mechanical allodynia (paw withdrawal latency) in the spared nerve injury (SNI) model after tamoxifen induction; assay type: in vivo, mouse; conditions: tamoxifen 1 mg/d i.p. for 3 d starting 10 d after SNI, observed up to 21 d, no effect in the first 7 d or in tamoxifen-treated control mice
Description: Mechanical paw sensitivity. Paw withdrawal latency after mechanical stimulation was measured with an automated von Frey-type testing device (Dynamic Plantar Aesthesiometer; Ugo Basile) which allows for reliable detection of mechanical sensitivity in mice (Schmidtko et al., 2008). The stainless steel probe of the touch stimulator unit was pushed against the paw with ascending force until a strong and immediate withdrawal occurred. The maximum force was set at 5 g and the ramp speed was 0.5 g/s. The paw withdrawal latency was calculated as the mean of 4-6 measurements with at least 20 s in between.
Neuropathic pain. The “spared nerve injury” (SNI) model and the “chronic constriction injury” (CCI) model were used to investigate neuropathic pain behavior. Surgery was carried out under isoflurane anaesthesia. For SNI, two branches of the sciatic nerve were ligated and cut distally, leaving the sural nerve intact (Decosterd and Woolf, 2000). […]
(§1) Global gene ablation may cause developmental compensatory adaptations that might affect phenotypic changes in the genetically manipulated adult animal. […] Ten days after SNI, mice were i.p. injected with tamoxifen (1 mg/d for 3 d) to activate Cre recombinase and knock-down Nox4, and paw withdrawal latency times were measured up to 21 d after the first injection.

[2] = tested on: Nox4 mRNA; assay: Nox4 mRNA expression by quantitative real-time RT-PCR after tamoxifen induction in Nox4-CreERT2 mice; assay type: in vivo, mouse; conditions: tamoxifen 1 mg/d i.p. for 3 d
Description: Tamoxifen induction. Tamoxifen (Sigma Aldrich) was prepared by dissolving in ethanol (10 mg per 100 μl) and mixing this solution with 900 μl corn oil for a final concentration of 10 mg/ml. Eight- to ten-week-old Nox4-CreERT2 mice were i.p. injected with 100 μl tamoxifen solution (1 mg, corresponding to about 40 mg/kg tamoxifen) once a day at 10, 11 and 12 d after SNI.
Mice were exsanguinated under deep isoflurane anaesthesia, and tissues were dissected, snap frozen in liquid nitrogen and stored at −80° C. Total RNA from spinal cord, brain and DRGs was extracted under RNase-free conditions using a RNA isolation kit (for spinal cord and brain: RNeasy® Lipid Tissue Mini Kit; Qiagen; for DRGs: RNAqueous Micro Kit; Ambion) according to the manufacturer's instructions, DNase treated for 15 min to minimize genomic DNA contamination and quantified with a NanoDrop® ND-1000 spectrophotometer (NanoDrop® Technologies). cDNA was synthesized using 200 ng RNA, random hexamer primers, RT-Enhancer and the Verso®-enzyme of the Verso® Kit (Thermo Scientific). Real-time RT-PCR was performed with an ABI Prism® 7500 Sequence Detection System (Applied Biosystems) using TaqMan Gene Expression Assays for murine Nox4 (Mm01317086_ml), Nox1 (Mm00549170_m1), Nox2 (Mm01287742_m1), Nox3 (Mm01339132_m1), GAPDH (Mm99999915_μl) and β-actin (Mm00607939_s1), purchased from Applied Biosystems. […] Relative expression of target gene levels was determined using the comparative ΔΔCt method, with Ct indicating the cycle number at which the signal of the PCR product crosses an arbitrary threshold set within the exponential phase of the PCR. […]
as §1

SMILES: CC/C(=C(\c1ccccc1)c1ccc(OCCN(C)C)cc1)c1ccccc1 [tamoxifen, Tamoxifen]
- Mechanical allodynia (paw withdrawal latency after mechanical stimulation) [1]: gradually recovered from mechanical allodynia
- Nox4 mRNA in DRGs as compared to vehicle-treated Nox4-CreERT2 mice ([2]; Nox4-CreERT2 mice, SNI, 21 d after tamoxifen treatment, P=0.008): 54%
- Nox4 mRNA in the spinal cord as compared to vehicle-treated Nox4-CreERT2 mice ([2]; Nox4-CreERT2 mice, SNI, 21 d after tamoxifen treatment, P=0.116): 83%
- Nox4 mRNA in DRGs, of baseline levels ([2]; 21 d after treatment, no significant reduction in the spinal cord): ~50%
